# Measured values taken from patent US10800811B2, “Pharmacologically active peptide compound, process for the preparation and use thereof” (Dipartimento di Scienze Biomediche e Biotecnologiche, priority 2016, dated 2020).
# Where a name gives a salt, the structure may show the parent alone. No end group written: not given here.
# How the values were obtained:
# ALS patients = settings: background statement, cited from earlier work
# ALS model mice = settings: background statement; cited from earlier work
# NSC34-SOD1-G93A cell = assay type: cell-based, mice
# Method: The action of the said NHK1 peptide upon the complex VDAC1/SOD1-G93A, i.e. the complex formed by the interaction between protein VDAC1 and the mutant enzyme SOD1 (exactly the mutant G93A, where the glycine 93 was replaced by alanine) was evaluated by in vitro and in cellulo experiments, i.e. in the NSC34 cell line. NSC34 is a hybrid cell line obtained by fusing mice motor neurons with neuroblastoma cells. The NSC34 cell line is widely recognized as cell model of motor neurons and, following its transfection with mutated SOD1, it is considered a reference model of ALS [Cashman N R et al. Neuroblastoma×spinal cord (NSC) hybrid cell lines resemble developing motor neurons. Dev. Dyn. […]
# The MTT assay is a colorimetric assay aimed to quantify the activity of dehydrogenase enzymes reducing 3-(4,5-dimethyltiazol-2-yl)-2,5-diphenyltetrazolium, yellow, to purple-blue formazan [Mosmann T., Rapid colorimetric assay for cellular growth and survival: application to proliferation and cytotoxicity assays. […]
# Cells were seeded on 24-wells plates at a density of 80,000 cells/well, incubated for 24 hours and then transiently transfected with plasmid pEGFP-N1 expressing SOD1WT or SOD1-G93A or a mock. […] The MTT assay was read after 24 hours incubation. […]
# The same vitality assay was repeated in the presence of the NHK1 peptide. […] The MTT assay was read after 24 hours incubation. […]
Compound,Efficacy in ALS (ALS patients),other results
CCCN[C@@H]1CCc2nc(N)sc2C1 [Dexpramipexole],lacks any efficacy in ALS patients,–
O=S(=O)(c1cccc2cnccc12)N1CCCNCC1 [Fasudil hydrochloride],inefficacy in ALS,–
CCCCCCCCc1ccc(CCC(N)(CO)CO)cc1 [Fingolimid],does not show any activity in ALS,–
O=C([O-])[O-].[Li+].[Li+] [Lithium carbonate],no influence on disease progression and survival,–
Cc1ccc(NC(=O)c2ccc(CN3CCN(C)CC3)cc2)cc1Nc1nc(-c2cccnc2)cs1 [Masitinib],inefficacy in ALS,–
Nc1nc2ccc(OC(F)(F)F)cc2s1 [Riluzole],–,"Extension of life expectation (ALS patients; ALS, statistical analysis): about three months"
C#Cc1cnc2nc(O)n(C(CC)CC)c2n1 [Tirasemvit],–,Improvement of skeletal muscle strength (ALS model mice): did not confirm such ability
"IAAQLLAYYFT [NHK1, Isoleucine-Alanine-Alanine-Glutamine-Leucine-Leucine-Alanine-Tyrosine-Tyrosine-Phenylalanine-Threonine]",–,Toxicity for the cell (NSC34-SOD1-G93A cell): not toxic at all
